Measured values as given in patent publication US12590079B2, “Compounds and uses thereof” (FOGHORN THERAPEUTICS INC., priority 2019, dated 2026).

How the values were obtained:
Assay type in all cases: cell-based
[1] = tested on: synovial sarcoma cell lines (SYO1, Yamato, HS-SY-II, and ASKA); assay: Cell growth (confluency, crystal violet, colony imaging), synovial sarcoma cell lines, Example 2; conditions: 1 μM or indicated concentrations, day 11 to 23
Description: (§1) Cells were treated with DMSO or the BRD9 degrader, Compound 1, at indicated concentrations, and proliferation was monitored from day 7 to day 14 by measuring confluency overtime using an IncuCyte live cell analysis system (FIG. 5). Growth medium and compounds were refreshed every 3-4 days.
(§2) Cells were seeded into 12-well plates and treated with DMSO, 1 μM BRD9 inhibitor, Compound 2 (also known as BI-7273, see Martin et al, J Med Chem. 59(10):4462-4475 (2016); see structure of compound 2 below), or 1 μM BRD9 degrader, Compound 1.
(§3) The number of cells was optimized for each cell line. Growth medium and compounds were refreshed every 3-5 days. SYO1, Yamato, A549, 293T and HS-SY-II cells were fixed and stained at day 11. ASKA cells were fixed and stained at day 23. Staining was done by incubation with crystal violet solution (0.5 g Crystal Violet, 27 ml 37% Formaldehyde, 100 mL 10×PBS, 10 mL Methanol, 863 dH20 to 1 L) for 30 min followed by 3× washes with water and drying the plates for at least 24 h at room temperature. Subsequently plates were scanned on an Odyssey CLx Imaging system (FIG. 6).
(§4) Cells were seeded into 96-well ultra-low cluster plate (Costar, #7007) in 200 μL complete media and treated at day 2 with DMSO, Staurosporin, or BRD9 degrader, Compound 1, at indicated doses (FIG. 3C). Media and compounds were changed every 5 d and cell colonies were imaged at day 14.

[2] = tested on: synovial sarcoma cell lines (SYO1, HS-SY-II, and ASKA); assay: Crystal violet cell growth, synovial sarcoma cell lines, Example 3; conditions: for inhibition of the growth of the cells: SYO1, HS-SY-II, ASKA, treated daily, stained by day 14
Description: (§5) Procedure: Cells were seeded into 6-well or 12-well plates and were treated daily with a BRD9 degrader (Compound 1), a bromo-domain BRD9 binder (Compound 2), E3 ligase binder (lenalidomide), DMSO, or staurosporin (positive control for cell killing), at indicated concentrations. The number of cells was optimized for each cell line. Growth media was refreshed every 5 days. By day 14, medium was removed, cells were washed with PBS, and stained using 500 μL of 0.005% (w/v) crystal violet solution in 25% (v/v) methanol for at least 1 hour at room temperature. Subsequently plates were scanned on an Odyssey CLx Imaging system.

[3] = tested on: non-synovial control cancer cell lines (RD, HCT116, and Calu6); assay: Crystal violet cell growth, non-synovial control lines, Example 3; conditions: treated daily, stained by day 14
Description: as §5

[4] = tested on: SYO1 cells; assay: Cell cycle analysis (Click-iT Plus EdU flow cytometry); conditions: 200 nM or 1 μM, 8 or 13 days, compared to DMSO and lenalidomide
Description: (§6) Procedure: SYO1 cells were treated for 8 or 13 days with DMSO, a BRD9 degrader (Compound 1) at 200 nM or 1 μM, or an E3 ligase binder (lenalidomide) at 200 nM. Compounds were refreshed every 5 days. Cell cycle analysis was performed using the Click-iT™ Plus EdU Flow Cytometry Assay (Invitrogen). The apoptosis assay was performed using the Annexin V-FITC Apoptosis Detection Kit (Sigma A9210). Assays were performed according to the manufacturer's protocol.

[5] = tested on: SYO1 cells; assay: Apoptosis assay (Annexin V-FITC); conditions: 200 nM or 1 μM, 8 days, compared to DMSO controls
Description: as §6

[6] = tested on: non-synovial control cancer cell lines (293T, A549, G401); assay: Cell growth (confluency, crystal violet, colony imaging), non-synovial control lines, Example 2; conditions: 1 μM or indicated concentrations
Description: as §1, §2, §3, §4

[7] = biological target: T1, Nanoluciferase-BRD9 fusion protein (3×FLAG-NLuc-BRD9) (Homo sapiens, UniProt Q9H8M2); assay: SYO1 BRD9 NanoLuc degradation assay; conditions: SYO-1 cells expressing 3×FLAG-NLuc-BRD9, 6 hours, top dose 1 μM; read-out: SYO1 BRD9-NanoLuc degradation IC50
T1 construct: expressed in transfected cells
T1 sequence (Q9H8M2 1-597): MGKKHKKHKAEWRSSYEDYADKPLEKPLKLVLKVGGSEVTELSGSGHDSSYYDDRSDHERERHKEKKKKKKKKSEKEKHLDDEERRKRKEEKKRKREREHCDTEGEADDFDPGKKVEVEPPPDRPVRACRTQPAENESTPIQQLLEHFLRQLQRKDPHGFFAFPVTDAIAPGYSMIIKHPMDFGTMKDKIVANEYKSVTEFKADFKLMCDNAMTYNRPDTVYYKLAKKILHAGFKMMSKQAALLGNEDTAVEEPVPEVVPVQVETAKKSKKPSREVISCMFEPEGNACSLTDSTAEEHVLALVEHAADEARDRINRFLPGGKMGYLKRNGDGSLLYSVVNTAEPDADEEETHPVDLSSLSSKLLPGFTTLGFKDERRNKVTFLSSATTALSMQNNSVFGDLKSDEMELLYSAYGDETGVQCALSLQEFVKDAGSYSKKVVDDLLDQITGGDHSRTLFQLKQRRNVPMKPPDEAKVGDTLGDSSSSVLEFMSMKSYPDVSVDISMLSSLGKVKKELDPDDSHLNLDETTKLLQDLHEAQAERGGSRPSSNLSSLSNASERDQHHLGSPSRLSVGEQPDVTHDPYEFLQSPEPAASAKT
Description: Procedure: A stable SYO-1 cell line expressing 3×FLAG-NLuc-BRD9 was generated. On day 0 cells were seeded in 30 μL media into each well of 384-well cell culture plates. The seeding density was 8000 cells/well. On day 1, cells were treated with 30 nL DMSO or 30 nL of 3-fold serially DMSO-diluted compounds (10 points in duplicates with 1 μM as final top dose). Subsequently plates were incubated for 6 hours in a standard tissue culture incubator and equilibrated at room temperature for 15 minutes. Nanoluciferase activity was measured by adding 15 μL of freshly prepared Nano-Glo Luciferase Assay Reagent (Promega N1130), shaking the plates for 10 minutes and reading the bioluminescence using an EnVision reader.
Results: The Inhibition % was calculated using the following formula: % Inhibition=100×(LumHC−LumSample)/(LumHC−LumLC). DMSO treated cells are employed as High Control (HC) and 1 μM of a known BRD9 degrader standard treated cells are employed as Low Control (LC).

| SMILES | DC50 [7] | inhibition of the growth of the cells [1] | inhibition of the growth of the cells [2] | growth inhibition compared with the other treatments ([2]; all synovial cell lines, vs Compound 2 and lenalidomide) | inhibition of the growth of the cells [3] | numbers of cells in the S-phase of the cell cycle [4] | numbers of early- and late-apoptotic cells [5] | inhibition of the growth of the cells [6] |
| --- | --- | --- | --- | --- | --- | --- | --- | --- |
| COc1cc(-c2cn(C)c(=O)c3cnccc23)cc(OC)c1CN(C)CC(=O)NCCOCCOCCNc1cccc2c1C(=O)N(C1CCC(=O)NC1=O)C2=O (centres unmarked) [Compound 1, dBRD9] |  | results in inhibition of the growth of the cells | resulted in inhibition of the growth of the cells | most significant growth inhibition in all synovial cell lines | did not result in inhibition of the growth | reduced numbers of cells in the S-phase of the cell cycle | increased numbers of early- and late-apoptotic cells | does not result in inhibition of the growth |
| COc1cc(-c2cn(C)c(=O)c3cnccc23)cc(OC)c1CN(C)C [Compound 2, BI-7273] |  | results in inhibition of the growth of the cells | resulted in inhibition of the growth of the cells |  | did not result in inhibition of the growth |  |  | does not result in inhibition of the growth |
| COc1cc(C2=CN(C)C(=O)N(C)C2)cc(OC)c1CN1CCC(CCN2CCN(c3ccc4c(c3)C(=O)N(C3CCC(=O)NC3=O)C4)CC2)CC1 (centres unmarked) [Compound D1, 3-(6-[4-[2-(1-[[4-(1,3-dimethyl-2-oxo-4H-pyrimidin-5-yl)-2,6-dimethoxyphenyl]methyl]piperidin-4-yl)ethyl]piperazin-1-yl]-1-oxo-3H-isoindol-2-yl)piperidine-2,6-dione] | < 10 nM |  |  |  |  |  |  |  |

Continued, in another order:

| DC50 [7] | SMILES | inhibition of the growth of the cells [1] | inhibition of the growth of the cells [2] | growth inhibition compared with the other treatments ([2]; all synovial cell lines, vs Compound 2 and lenalidomide) | inhibition of the growth of the cells [3] | numbers of cells in the S-phase of the cell cycle [4] | numbers of early- and late-apoptotic cells [5] | inhibition of the growth of the cells [6] |
| --- | --- | --- | --- | --- | --- | --- | --- | --- |
| < 10 nM | COc1cc(C2=CN(C)C(=O)N(C)C2)cc(OC)c1CN1CCC(CCN2CCN(c3ccc4c(c3)CN(C3CCC(=O)NC3=O)C4=O)CC2)CC1 (centres unmarked) [Compound D2, 3-(5-[4-[2-(1-[[4-(1,3-dimethyl-2-oxo-4H-pyrimidin-5-yl)-2,6-dimethoxyphenyl]methyl]piperidin-4-yl)ethyl]piperazin-1-yl]-1-oxo-3H-isoindol-2-yl)piperidine-2,6-dione] |  |  |  |  |  |  |  |
| < 10 nM | COc1cc(C2=CN(C)C(=O)N(C)C2)cc(OC)c1CN1CCN(CCC2CCN(c3ccc4c(c3)CN(C3CCC(=O)NC3=O)C4=O)CC2)CC1 (centres unmarked) [Compound D3, 3-(5-[4-[2-(4-[[4-(1,3-dimethyl-2-oxo-4H-pyrimidin-5-yl)-2,6-dimethoxyphenyl]methyl]piperazin-1-yl)ethyl]piperidin-1-yl]-1-oxo-3H-isoindol-2-yl)piperidine-2,6-dione Formic Acid] |  |  |  |  |  |  |  |
